In patent US8999956B2, “N-[(het)arylalkyl)] pyrazole(thio)carboxamides and their heterosubstituted analogues” (Bayer Intellectual Property GmbH, priority 2010, dated 2015):

Tests used:
[1] = log P by HPLC on reversed-phase column (EEC Directive 79/831 Annex V.A8); assay type: physicochemical
Description: In table 1, the log P values were determined in accordance with EEC Directive 79/831 Annex V.A8 by HPLC (High Performance Liquid Chromatography) on a reversed-phase column (C18), using the method described below: Temperature: 40° C.; […]

Pyrenophora teres = assay: In vivo preventive test on Pyrenophora teres (barley); conditions: 500 ppm of active ingredient, evaluated 7-9 days after inoculation
Description: Solvent: 49 parts by weight of N,N-dimethylformamide Emulsifier: 1 part by weight of alkylaryl polyglycol ether To produce a suitable preparation of active compound, 1 part by weight of active compound is mixed with the stated amounts of solvent and emulsifier, and the concentrate is diluted with water to the desired concentration. To test for preventive activity, young plants are sprayed with the preparation of active compound at the stated rate of application. One day after this treatment, the plants are inoculated with an aqueous spore suspension of Pyrenophora teres.

SMILES | logP [1] | Efficacy (Pyrenophora teres)
CN(C(=O)c1c(C(F)F)nn(C)c1F)C(COc1ccc2ccccc2c1)C1CC1 (racemic) [Example 139] | 3.76 | 90%
CC(COc1ccccc1)NC(=O)c1c(C(F)F)nn(C)c1F (stereo not drawn) [Example 13] | 2.66 | 94%
CC(COc1ccccc1)NC(=O)c1c(C(F)F)nn(C)c1Cl (stereo not drawn) [Example 14] | 2.84 | 95%
Cn1nc(C(F)F)c(C(=O)N(CCOc2ccc(-c3ccccc3)cc2)C2CC2)c1Cl [Example 28] | 4.03 | 90%
Cn1nc(C(F)F)c(C(=O)NCCOc2ccc(Oc3ccccc3)cc2)c1Cl [Example 35] | 3.55 | 70%
CCC(COc1cc(OC)ccn1)NC(=O)c1c(C(F)F)nn(C)c1Cl (stereo not drawn) [Example 43] | 1.86 | 89%
CC(C)C(CCc1ccc(Cl)cc1)NC(=O)c1c(C(F)F)nn(C)c1Cl (stereo not drawn) [Example 62] | 4.11 | 80%
Cn1nc(C(F)F)c(C(=O)NCCOc2ccc(C(F)(F)F)cc2)c1F [Example 68] | 3.04 | 80%
Cn1nc(C(F)F)c(C(=O)N(CCOc2c(Cl)cc(Cl)cc2Cl)C2COC2)c1Cl [Example 207] | 3.55 | 
CC(C)N(CCOc1c(Cl)cc(Cl)cc1Cl)C(=O)c1c(C(F)F)nn(C)c1Cl [Example 208] | 4.71 | 
Cn1nc(C(F)F)c(C(=O)N(CCOc2c(Cl)cc(Cl)cc2Cl)C2CCCC2)c1F [Example 209] | 5.08 | 
CC(COc1c(Cl)cc(Cl)cc1Cl)NC(=O)c1c(C(F)F)nn(C)c1Cl (stereo not drawn) [Example 211] | 4.20 | 
CC(COc1c(Cl)cc(Cl)cc1Cl)NC(=O)c1c(C(F)F)nn(C)c1F (stereo not drawn) [Example 212] | 3.92 | 
CCC(COc1cccc2ccccc12)NC(=O)c1c(C(F)F)nn(C)c1Cl (stereo not drawn) [Example 223] | 3.85 | 
CN(CC(=O)OCc1ccccc1)C(=O)c1c(C(F)F)nn(C)c1F [Example 226] | 2.44 | 
CC(C)C(C(=O)OCc1ccccc1)N(C)C(=O)c1c(C(F)F)nn(C)c1F (stereo not drawn) [Example 227] | 3.35 | 
CN(CC(=O)OCc1ccccc1)C(=O)c1c(C(F)F)nn(C)c1Cl [Example 228] | 2.57 | 
CC(C)C(C(=O)OCc1ccccc1)N(C)C(=O)c1c(C(F)F)nn(C)c1Cl (stereo not drawn) [Example 229] | 3.48 | 
CN(CCN(C)C(=O)c1c(C(F)F)nn(C)c1F)C(=O)c1ccccc1 [Example 230] | 1.66 | 
CN(CCN(C)C(=O)c1c(C(F)F)nn(C)c1Cl)C(=O)c1ccccc1 [Example 231] | 1.76 | 
CN(CCC(=O)Nc1ccc(Cl)c(Cl)c1)C(=O)c1c(C(F)F)nn(C)c1F [Example 232] | 2.71 | 

SMILES | logP [1] | Efficacy (Pyrenophora teres)
CN(CCC(=O)Nc1ccc(Cl)c(Cl)c1)C(=O)c1c(C(F)F)nn(C)c1Cl [Example 233] | 2.86 | 
CCCN(CCCOc1c(C)cc(C)cc1C)C(=O)c1c(C(F)F)nn(C)c1Cl [Example 234] | 4.39 | 
CCCN(CCCOc1c(C)cc(C)cc1C)C(=O)c1c(C(F)F)nn(C)c1F [Example 235] | 4.27 | 
CC(CSCc1ccco1)N(C(=O)c1c(C(F)F)nn(C)c1F)C1CC1 (stereo not drawn) [Example 236] | 3.11 | 
CC(CSCc1ccco1)N(C(=O)c1c(C(F)F)nn(C)c1Cl)C1CC1 (stereo not drawn) [Example 237] | 3.27 | 
CC(CSCc1ccco1)N(C)C(=O)c1c(C(F)F)nn(C)c1F (stereo not drawn) [Example 238] | 2.49 | 
CC(CSCc1ccco1)N(C)C(=O)c1c(C(F)F)nn(C)c1Cl (stereo not drawn) [Example 239] | 2.64 | 
CN(C(=O)c1c(C(F)F)nn(C)c1F)C1CCCCC1Cc1ccccc1 (stereo not drawn) [Example 253] | 3.72 | 
CN(C(=O)c1c(C(F)F)nn(C)c1Cl)C1CCCCC1Cc1ccccc1 (stereo not drawn) [Example 254] | 3.87 | 
Cn1nc(C(F)F)c(C(=O)NC2CCCC2Sc2ncccn2)c1Cl (stereo not drawn) [Example 257] | 2.26 | 
CN(CC=Cc1ccccc1)C(=O)c1c(C(F)F)nn(C)c1Cl [Example 261] | 2.84 | 
CN(CC=Cc1ccccc1)C(=O)c1c(C(F)F)nn(C)c1F [Example 262] | 2.73 | 
CCN(CC=Cc1ccccc1)C(=O)c1c(C(F)F)nn(C)c1Cl [Example 263] | 3.17 | 
CCN(CC=Cc1ccccc1)C(=O)c1c(C(F)F)nn(C)c1F [Example 264] | 3.02 | 
COCCN(CC=Cc1ccccc1)C(=O)c1c(C(F)F)nn(C)c1Cl [Example 265] | 3.02 | 
COCCN(CC=Cc1ccccc1)C(=O)c1c(C(F)F)nn(C)c1F [Example 266] | 2.86 | 
Cn1nc(C(F)F)c(C(=O)N(CC#Cc2ccccc2)C(C)(C)C)c1F [Example 267] | 3.83 | 
Cn1nc(C(F)F)c(C(=O)N(CC#Cc2ccccc2)C(C)(C)C)c1Cl [Example 268] | 3.96 | 
CN(CC#Cc1ccccc1)C(=O)c1c(C(F)F)nn(C)c1F [Example 269] | 2.78 | 
CN(CC#Cc1ccccc1)C(=O)c1c(C(F)F)nn(C)c1Cl [Example 270] | 2.92 | 
Cn1nc(C(F)F)c(C(=O)N(CC#Cc2ccccc2)C2CC2)c1Cl [Example 272] | 3.33 | 

SMILES | logP [1] | Efficacy (Pyrenophora teres)
Cn1nc(C(F)F)c(C(=O)N(CC#Cc2ccccc2)C2CCCC2)c1F [Example 273] | 3.73 | 
Cn1nc(C(F)F)c(C(=O)N(CC#Cc2ccccc2)C2CCCC2)c1Cl [Example 274] | 3.92 | 
Cn1nc(C(F)F)c(C(=O)N(CC#Cc2cc3ccccc3o2)C2CC2)c1F [Example 275] | 3.55 | 
Cn1nc(C(F)F)c(C(=O)N(CC#Cc2cc3ccccc3s2)C2CC2)c1F [Example 276] | 3.85 | 
Cn1nc(C(F)F)c(C(=O)NCC#Cc2cc3ccccc3s2)c1F [Example 277] | 3.19 | 
CN(CC#Cc1cc2ccccc2s1)C(=O)c1c(C(F)F)nn(C)c1F [Example 278] | 3.39 | 
Cn1nc(C(F)F)c(C(=O)N(CC#Cc2ccco2)C2CC2)c1F [Example 279] | 2.70 | 
Cn1nc(C(F)F)c(C(=O)NCC#Cc2ccco2)c1F [Example 280] | 2.14 | 
CN(CC#Cc1ccco1)C(=O)c1c(C(F)F)nn(C)c1F [Example 281] | 2.32 | 
Cn1nc(C(F)F)c(C(=O)N(CC#Cc2cccs2)C2CC2)c1F [Example 282] | 3.00 | 
Cc1ccsc1C#CCN(C(=O)c1c(C(F)F)nn(C)c1F)C1CC1 [Example 283] | 3.31 | 
Cn1nc(C(F)F)c(C(=O)NC(C)(C)C#Cc2ccc(C#N)cc2)c1F [Example 284] | 2.82 | 
Cc1ccc2sc(C#CCN(C(=O)c3c(C(F)F)nn(C)c3F)C3CC3)cc2c1 [Example 285] | 4.26 | 
Cc1ccc(C#CCN(C(=O)c2c(C(F)F)nn(C)c2F)C2CC2)s1 [Example 286] | 3.37 | 
CC(CC[Si](C)(C)C)N(C(=O)c1c(C(F)F)nn(C)c1F)C1CC1 (stereo not drawn) [Example 304] | 4.39 | 
COCCCCNC(=O)c1c(C(F)F)nn(C)c1F [Example 305] | 1.40 | 
CCCCC1CCCC1NC(=S)c1c(C(F)F)nn(C)c1F (stereo not drawn) [Example 308] | 4.39 | 
Cn1nc(C(F)F)c(C(=S)NC2CCCC2CCC(C)(C)C)c1F (stereo not drawn) [Example 321] | 5.01 | 
CC1CC(N(C(=S)c2c(C(F)F)nn(C)c2F)C2CC2)CC(C)(C)C1 (stereo not drawn) [Example 323] | 4.96 | 
CCCCCCC1CCCCC1NC(=S)c1c(C(F)F)nn(C)c1F (stereo not drawn) [Example 327] | 5.81 | 
CCCCC1CCCCC1NC(=S)c1c(C(F)F)nn(C)c1F (stereo not drawn) [Example 332] | 4.86 | 

SMILES | logP [1] | Efficacy (Pyrenophora teres)
CC(C)CC(C)C1CCCCC1NC(=S)c1c(C(F)F)nn(C)c1Cl (stereo not drawn) [Example 336] | 5.42 | 
CCCC1CCCCC1NC(=S)c1c(C(F)F)nn(C)c1F (stereo not drawn) [Example 345] | 4.21 | 
C=CCC1CCCCC1N(C(=O)c1c(C(F)F)nn(C)c1F)C1CC1 (stereo not drawn) [Example 346] | 3.94 | 
C=CCC1CCCCC1N(C(=O)c1c(C(F)F)nn(C)c1Cl)C1CC1 (stereo not drawn) [Example 347] | 4.16 | 
Cn1nc(C(F)F)c(C(=O)NC2CCCCC2C(C)(C)C)c1Cl (stereo not drawn) [Example 348] | 4.15 | 
Cn1nc(C(F)F)c(C(=S)NC2CCCCC2CCC(C)(C)C)c1Cl (stereo not drawn) [Example 356] | 5.60 | 
CCC1(C)CC(NC(=O)c2c(C(F)F)nn(C)c2Cl)CC(C)(C)C1 (stereo not drawn) [Example 362] | 4.44 | 
CCC1(C)CC(NC(=O)c2c(C(F)F)nn(C)c2F)CC(C)(C)C1 (stereo not drawn) [Example 363] | 4.23 | 
Cn1nc(C(F)F)c(C(=O)N(C2CC2)C2CCCC2C2CCCC2)c1Cl (stereo not drawn) [Example 369] | 4.83 | 
CC(CC1CCCCC1)N(C(=O)c1c(C(F)F)nn(C)c1Cl)C1CC1 (stereo not drawn) [Example 371] | 4.56 | 
Cn1nc(C(F)F)c(C(=O)N(C2CC2)C2CCCCC2C2CCCCC2)c1Cl (stereo not drawn) [Example 373] | 5.59 | 
Cn1nc(C(F)F)c(C(=O)NC2CCCCC2C2CCCCC2)c1Cl (stereo not drawn) [Example 375] | 4.56 | 
Cn1nc(C(F)F)c(C(=O)N(C2CC2)C2CCCCC2C2=CCCCC2)c1Cl (stereo not drawn) [Example 377] | 5.17 | 
CC#CC1(NC(=O)c2c(C(F)F)nn(C)c2F)CCCCC1 [Example 382] | 2.90 | 
CC#CC1(NC(=O)c2c(C(F)F)nn(C)c2Cl)CCCCC1 [Example 383] | 3.11 | 
C#CC1(NC(=O)c2c(C(F)F)nn(C)c2Cl)CCCCC1 [Example 384] | 2.73 | 
C#CC1(NC(=O)c2c(C(F)F)nn(C)c2F)CCCCC1 [Example 385] | 2.56 | 
Cn1nc(C(F)F)c(C(=O)NC2(C(F)(F)F)CCCCC2)c1Cl [Example 386] | 3.15 | 
Cn1nc(C(F)F)c(C(=O)NC2(C(F)(F)F)CCCCC2)c1F [Example 387] | 3.00 | 
